Patent US20240139280A1, “USE OF HIF-1-ALPHA INHIBITORS IN CANCER IMMUNOTHERAPY” (ONCOC4, INC., priority 2021, published 2024)

What was measured:
[1] = tested on: leukemia stem cells; conditions: Wang et al., 2011; cited from earlier work
[2] = tested on: 4T1 tumor; assay: 4T1 tumor growth in mice; type: in vivo; conditions: for 4T1 tumor growth: echinomycin 0.15 mg/kg, vs vehicle
Experimental: FIGS. 3A-D show the therapeutic effects of echinomycin on tumor growth in immunodeficient and immunocompetent mice. FIG. 3A. Experimental design. Three murine tumor lines were tested: 4T1, E0771, or MC38. For each, immunodeficient and immunocompetent mice were inoculated (day 0), and treatment was initiated with control liposomes (vehicle) or echinomycin liposomes (LEM) on day 6, indicated by arrows in FIGS. 3B-3D. The kinetics of tumor growth were compared to deduce the role of adaptive immunity in the therapeutic effects of echinomycin. FIG. 3B. 4T1 cells (1×10^6) were transplanted into mammary fat pad of NSG and BALB/c mice, which received vehicle or echinomycin (0.15 mg/kg) (arrows). Mean tumor volumes±SEM are shown for one of two independent experiments (n=10/group). FIG. 3C. Kinetics of E0771 tumor growth. E0771 cells (0.7×10^6) were transplanted into mammary fat pad of NSG and C57BL/6 mice, which received vehicle or echinomycin (0.25 mg/kg) (arrows). Mean tumor volumes±SEM are shown for one of two independent experiments (n=5/group). FIG. 3D. Kinetics of MC38 tumor growth. MC38 cells (1×10^6) were transplanted subcutaneously into NSG and C57BL/6 mice, which received vehicle or echinomycin (0.15 mg/kg) (blue arrows). Mean tumor volumes±SEM are shown for one of two independent experiments (n=5/group).
FIGS. 5A-D show at echinomycin potentiates the therapeutic effect of anti-CTLA-4 antibody. FIG. 5A. Experimental design. In 4T1, E0771, or MC38 syngeneic tumor models, the effects of echinomycin on tumor growth were tested in combination with anti-CTLA-4 therapy (9D9). Tumor growth kinetics in mice receiving vehicle, echinomycin, and anti-CTLA-4 (9D9) monotherapies, or anti-CTLA-4+anti-PD-1 (9D9+RMP1-14) are shown. Starting on day 6 after tumor cell inoculation, mice received vehicle or echinomycin and/or various mAbs. The mean tumor volumes±SEM are shown for each group. […]
Tumor Models The details of each experiment are specified in the figure legends. […] Tumor volumes were calculated and reported based on the formula […], where a is the longer diameter, and b is the shorter diameter. […]

[3] = tested on: irAE target organs (liver, kidney), spleen; assay: PD-L1 expression and T cell infiltration in normal tissues (liver, kidney, spleen) of E0771 tumor-bearing mice; type: in vivo, C57BL/6 mice
Experimental: E0771 cells (0.5×10^6) were orthotopically transplanted into C57BL/6 mice (day 0), which were divided into 6 treatment groups: vehicle, echinomycin (LEM), anti-CTLA-4 (9D9), 9D9+echinomycin, 9D9+echinomycin+XMG1.2 (an anti-IFNγ antibody), or 9D9+RMP1-14. Echinomycin (0.25 mg/kg) or mAbs (0.2 mg/mouse/injection) were given on days 6, 8, 10, and 12. On day 14, the mice were euthanized, perfused, and the spleens were dissociated and analyzed by flow cytometry, or stimulated for 4 hours with PMA+ionomycin+GolgiStop prior to intracellular staining for IFNγ. The liver and kidney were processed for immunofluorescence analysis for PD-L1. FIG. 7A. PD-L1 expression in the tumor-bearing mice treated with different therapies. Representative immunofluorescence images shown for kidney (upper) and liver tissues (lower) of mice from indicated treatment groups stained by anti-PD-L1 and DAPI. FIGS. 7B-D. T cell infiltration in the liver and kidney of tumor-bearing mice. Representative immunofluorescence images from mice in the indicated treatment groups after staining with anti-CD3 and DAPI are shown in FIG. 7B for kidney (upper panel) and liver tissues (lower panel). T cell infiltration scores in the kidney (FIG. 7C) and liver (FIG. 7D) are shown as mean±SEM infiltration scores for the kidney (FIG. 7C) and liver tissues (FIG. 7D). T cell infiltration scoring range: 0, normal/none; 1, minimal; 2, mild; 3, moderate; 4, severe. FIG. 7E. Frequency of splenic Tc1 cells among CD8^+ T cells (gated on Singlets/Live_CD45^+/CD3^+/CD8^+CD4^−), expressed as the mean±SEM. FIG. 7F. Frequencies of splenic Th1 cells among CD4^+ T cells (gated on Singlets/Live_CD45^+/CD3^+/CD8^−CD4^+), expressed as the mean±SEM. FIG. 7G. Frequency of splenic T cells (gated on Singlets/Live_CD45^+/CD3^+/CD8^+CD4^−) among total hematopoietic cells (gated on Singlets/Live_CD45^+). Representative data are shown for one of at least two independent experiments. FIG. 7H. CD3 and cleaved-caspase 3 staining in kidney and liver. Representative immunofluorescence images shown for kidney (upper) and liver tissues (lower) of mice that received 9D9 or 9D9+LEM. Caspase 3 positive cells are indicated with arrows. All data is representative of at least two independent experiments. In FIGS. 7C-G, data are presented as the mean±SEM with each dot representing an individual mouse, analyzed by one-way ANOVA with Sidak's posttest.

[4] = Tolerability and LD50 of intravenous echinomycin in mice; conditions: mouse, in vivo

**Q.** For `CSC1SC[C@H]2C(=O)N(C)[C@@H](C(C)C)C(=O)OC[C@@H](NC(=O)c3cnc4ccccc4n3)C(=O)N[C@@H](C)C(=O)N(C)[C@@H]1C(=O)N(C)[C@@H](C(C)C)C(=O)OC[C@@H](NC(=O)c1cnc3ccccc3n1)C(=O)N[C@@H](C)C(=O)N2C` (stereo in doubt) [echinomycin, N,N′-(2,4,12,15,17,25-hexamethyl-11,24-bis(1-methylethyl)-27-(methylthio)-3,6,10,13,16,19,23,26-octaoxo-9,22-dioxa-28-thia-2,5,12,15,18,25-hexaazabicyclo(12.12.3)nonacosane-7,20-diyl)bis(2-quinoxalinecarboxamide)], which “elimination of leukemia stem cells” value [1] is on record?
**A.** Its value is “effectively eliminated leukemia stem cells”.

**Q.** And the “4T1 growth inhibition, immunocompetent vs immunodeficient mice” value ([2]; BALB/c vs NSG)?
**A.** Its value is “more significantly inhibited in immunocompetent mice than in immunodeficient mice”.

**Q.** What about the 4T1 tumor growth ([2]; immunocompetent BALB/c) of the same compound?
**A.** The 4T1 tumor growth was “significantly inhibited 4T1 tumor growth”.

**Q.** And the 4T1 tumor growth ([2]; immunodeficient NSG)?
**A.** Its 4T1 tumor growth is “significantly inhibited 4T1 tumor growth”.

**Q.** What about the “T cell infiltration in liver and kidney” value ([3]; E0771 tumor-bearing C57BL/6, anti-CD3 immunofluorescence) of the same compound?
**A.** The value was “did not stimulate increased infiltration”.

**Q.** What about the “PD-L1 expression in liver and kidney (immunofluorescence)” value ([3]; E0771 tumor-bearing C57BL/6, echinomycin 0.25 mg/kg, mAbs 0.2 mg/mouse/injection) of the same compound?
**A.** The value was “also induced PD-L1”.

**Q.** What about the “PD-L1 expression in normal tissues including liver, kidney, salivary gland and colon” value ([3]; immunocompetent mice) of the same compound?
**A.** Its value is “induced PD-L1 expression”.

**Q.** And the “PD-L1 induction in the liver in mice with conditional knockout of Hif1α in T cells” value ([3]; mouse, in vivo)?
**A.** Its value is “preserved regardless of the mouse genotype”.

**Q.** And the LD50 [4]?
**A.** The LD50 was 0.629 mg/kg.
